From US20210046139A1, “VEGETATION WATERS AND USES THEREOF” (FATTORIA LA VIALLA DI GIANNI, ANTONIO E BANDINO LO FRANCO - …, priority 2018, published 2021)

System: STZ diabetic rats
Assay: Thiobarbituric acid reactive substances (TBARS) in plasma and kidney
Assay type: in vivo, Sprague-Dawley rats
Conditions: 50 mg/kg/day, 5 weeks, mean ± S.E.
Description: A well-established model of streptozotocin (STZ)-induced diabetes in rats was used. Streptozotocin is a glucosamine derivative of nitrosurea which selectively destroys the β cells of the pancreatic islets and causes the development of diabetes with hyperglycemia and glycosuria. The model shares a series of characteristics with human diabetic complications at both a functional level and a biochemical level, such as, for example, a reduced nervous conduction, loss of small-diameter sensory nerve fibers in the skin, reduction in Na+ and K+-ATPase activity and early alterations of the thermal and mechanical nociceptive thresholds. In this study, diabetes was induced in 24 rats with a single intraperitoneal injection of 60 mg/kg of STZ dissolved in a sodium citrate buffer (pH 4.5). 24 rats injected only with the vehicle were used as non-diabetic controls. Hyperglycemia was confirmed by measuring glycosuria 72 hours after the injection of STZ using Keto-Diabur strips (KD-5000; Roche Diagnostics Spa, Italy). Only the animals with glycosuria >5% were classified as diabetic and included in the study. […] The levels of TBARS were determined as an indicator of the production of reactive oxygen species. […] The upper phase was measured using fluorimetry, (Infinite M200; Tecan, Milan, Italy) at an excitation wavelength of 532 nm and emission wavelength of 553 nm. […]

OCCc1ccc(O)c(O)c1 [HT, hydroxytyrosol]
PLASMA TBARS (STZ diabetic rats): 12.1 ± 1.2 nmol/mL | PLASMA TBARS (non-diabetic control rats (CTRL)): 4.3 ± 0.5 nmol/mL
